Results as given in publication PMC7407272, “Induction of Lysosome Membrane Permeabilization as a Therapeutic Strategy to Target Pancreatic Cancer Stem Cells” (Cancers, 2020).

What was measured:
PAK6 = molecular target: T1, PAK6 (Homo sapiens, UniProt Q9NQU5); experiment: KINOMEscan; format: binding; conditions: read-out: % Ctrl
T1 construct: purchased DiscoveRx KINOMEscan

FGFR3 = molecular target: T2, FGFR3 (Homo sapiens, UniProt P22607); experiment: KINOMEscan; format: binding; conditions: read-out: % Ctrl
T2 construct: purchased DiscoveRx KINOMEscan

PIK3CG = molecular target: T3, PIK3CG (Homo sapiens, UniProt P48736); experiment: KINOMEscan; format: binding; conditions: read-out: % Ctrl
T3 construct: purchased DiscoveRx KINOMEscan

SGK = molecular target: T4, SGK (Homo sapiens, UniProt O00141); experiment: KINOMEscan; format: binding; conditions: read-out: % Ctrl
T4 construct: purchased DiscoveRx KINOMEscan

CDKL3 = molecular target: T5, CDKL3 (Homo sapiens, UniProt Q8IVW4); experiment: KINOMEscan; format: binding; conditions: read-out: % Ctrl
T5 construct: purchased DiscoveRx KINOMEscan

LTK = molecular target: T6, LTK (Homo sapiens, UniProt P29376); experiment: KINOMEscan; format: binding; conditions: read-out: % Ctrl
T6 construct: purchased DiscoveRx KINOMEscan

PDAC4 3D spheres = experiment: Viability curves on PDAC4 3D spheres; format: cell-based, human; conditions: Homo sapiens, 30 h
Text: The PDAC patient-derived xenograft (PDX) Panc354 (referred to hereafter as PDAC3) was obtained from Dr. Manuel Hidalgo under a Material Transfer Agreement with the Spanish National Cancer Centre (CNIO), Madrid, Spain (Reference no. I409181220BSMH). PDAC1, PDAC2 and PDAC4 PDXs were established from primary patient resected tumors. Samples were provided by the BioBank Hospital Ramón y Cajal-IRYCIS (PT13/0010/0002), integrated in the Spanish National Biobanks Network and they were processed following standard operating procedures with the appropriate approval of the Ethical and Scientific Committees (Control no. No. Control: DE-BIOB-73 AC65, RG.BIOB-96 REV, and CI-BIOB-08-10-01 rev), with informed consent and according to Declaration of Helsinki principles. Primary patient tumors were subcutaneously implanted in immunocompromised female 6- to 8-week-old NU-Foxn1nu nude mice (Envigo, Barcelona, Spain) and subsequently passage in vivo to establish PDX PDAC1, PDAC2 and PDAC4. Primary PDX-derived in vitro cultures were established as previously detailed. […]
Pancreatic CSC spheres were generated as previously described in ultra-low attachment plates (Corning) using CSC media: serum-free DMEM/F12 medium (1:1; #21331-020; Gibco, Waltham, MA, USA), supplemented with Pen/Strep (1:100; #1500-063; Gibco, Waltham, MA, USA), Fungizone (1:250; #15290-018; Gibco), L-Glutamine (1:100; #25030-024; Gibco, Waltham, MA, USA), B-27 (1:50; #17504-044; Gibco, Waltham, MA, USA) and basic fibroblast growth factor (FGF-b) (1:5000; Gibco, Waltham, MA, USA). […] To quantify spheres of > 40 μm, 1 mL of sample volume was analyzed with a CASY® Cell Counter (Roche Applied Sciences, Mannheim, Germany). […]

EPHA8 = molecular target: T7, EPHA8 (Homo sapiens, UniProt P29322); experiment: KINOMEscan; format: binding; conditions: read-out: % Ctrl
T7 construct: purchased DiscoveRx KINOMEscan

NLK = molecular target: T8, NLK (Homo sapiens, UniProt Q9UBE8); experiment: KINOMEscan; format: binding; conditions: read-out: % Ctrl
T8 construct: purchased DiscoveRx KINOMEscan

ABL1(H396P)-P = molecular target: T9, ABL1(H396P)-P (Homo sapiens, UniProt P00519, H396P); experiment: KINOMEscan; format: binding; conditions: read-out: % Ctrl
T9 construct: purchased DiscoveRx KINOMEscan

MYO3A = molecular target: T10, MYO3A (Homo sapiens, UniProt Q8NEV4); experiment: KINOMEscan; format: binding; conditions: read-out: % Ctrl
T10 construct: purchased DiscoveRx KINOMEscan

BMPR2 = molecular target: T11, BMPR2 (Homo sapiens, UniProt Q13873); experiment: KINOMEscan; format: binding; conditions: read-out: % Ctrl
T11 construct: purchased DiscoveRx KINOMEscan

ARK5 = molecular target: T12, ARK5 (Homo sapiens, UniProt O60285); experiment: KINOMEscan; format: binding; conditions: read-out: % Ctrl
T12 construct: purchased DiscoveRx KINOMEscan

JNK3 = molecular target: T13, JNK3 (Homo sapiens, UniProt P53779); experiment: KINOMEscan; format: binding; conditions: read-out: % Ctrl
T13 construct: purchased DiscoveRx KINOMEscan

CDK4 = molecular target: T14, CDK4 (Homo sapiens, UniProt P11802); experiment: KINOMEscan; format: binding; conditions: read-out: % Ctrl
T14 construct: purchased DiscoveRx KINOMEscan

PRKD3 = molecular target: T15, PRKD3 (Homo sapiens, UniProt O94806); experiment: KINOMEscan; format: binding; conditions: read-out: % Ctrl
T15 construct: purchased DiscoveRx KINOMEscan

RPS6KA5(KD2-C-t.) = molecular target: T16, RPS6KA5(KD2-C-t.) (Homo sapiens, UniProt O75582); experiment: KINOMEscan; format: binding; conditions: read-out: % Ctrl
T16 construct: RPS6KA5(KD2-C-t.); purchased DiscoveRx KINOMEscan

MEK2 = molecular target: T17, MEK2 (Homo sapiens, UniProt P36507); experiment: KINOMEscan; format: binding; conditions: read-out: % Ctrl
T17 construct: purchased DiscoveRx KINOMEscan

ABL1(Y253F)-P = molecular target: T18, ABL1(Y253F)-P (Homo sapiens, UniProt P00519, Y253F); experiment: KINOMEscan; format: binding; conditions: read-out: % Ctrl
T18 construct: purchased DiscoveRx KINOMEscan

T12 sequence (O60285 whole entry): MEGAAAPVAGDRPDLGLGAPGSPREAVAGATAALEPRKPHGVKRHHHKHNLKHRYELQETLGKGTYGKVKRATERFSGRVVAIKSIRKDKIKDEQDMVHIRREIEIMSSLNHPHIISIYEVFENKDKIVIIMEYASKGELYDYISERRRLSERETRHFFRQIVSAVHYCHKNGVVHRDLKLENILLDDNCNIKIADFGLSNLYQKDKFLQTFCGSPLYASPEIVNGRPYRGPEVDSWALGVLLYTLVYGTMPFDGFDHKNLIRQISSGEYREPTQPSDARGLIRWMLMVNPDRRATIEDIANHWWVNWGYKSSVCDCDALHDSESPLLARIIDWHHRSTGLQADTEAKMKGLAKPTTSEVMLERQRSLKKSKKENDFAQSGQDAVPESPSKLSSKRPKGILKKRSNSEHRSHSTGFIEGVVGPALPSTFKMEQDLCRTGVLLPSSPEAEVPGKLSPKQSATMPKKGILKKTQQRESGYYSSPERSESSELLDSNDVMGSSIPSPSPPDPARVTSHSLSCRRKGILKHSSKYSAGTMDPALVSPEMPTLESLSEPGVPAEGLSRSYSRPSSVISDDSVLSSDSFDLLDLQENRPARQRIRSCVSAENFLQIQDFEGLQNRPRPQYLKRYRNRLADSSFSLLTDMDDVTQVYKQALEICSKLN
T7 sequence (P29322 28-1005): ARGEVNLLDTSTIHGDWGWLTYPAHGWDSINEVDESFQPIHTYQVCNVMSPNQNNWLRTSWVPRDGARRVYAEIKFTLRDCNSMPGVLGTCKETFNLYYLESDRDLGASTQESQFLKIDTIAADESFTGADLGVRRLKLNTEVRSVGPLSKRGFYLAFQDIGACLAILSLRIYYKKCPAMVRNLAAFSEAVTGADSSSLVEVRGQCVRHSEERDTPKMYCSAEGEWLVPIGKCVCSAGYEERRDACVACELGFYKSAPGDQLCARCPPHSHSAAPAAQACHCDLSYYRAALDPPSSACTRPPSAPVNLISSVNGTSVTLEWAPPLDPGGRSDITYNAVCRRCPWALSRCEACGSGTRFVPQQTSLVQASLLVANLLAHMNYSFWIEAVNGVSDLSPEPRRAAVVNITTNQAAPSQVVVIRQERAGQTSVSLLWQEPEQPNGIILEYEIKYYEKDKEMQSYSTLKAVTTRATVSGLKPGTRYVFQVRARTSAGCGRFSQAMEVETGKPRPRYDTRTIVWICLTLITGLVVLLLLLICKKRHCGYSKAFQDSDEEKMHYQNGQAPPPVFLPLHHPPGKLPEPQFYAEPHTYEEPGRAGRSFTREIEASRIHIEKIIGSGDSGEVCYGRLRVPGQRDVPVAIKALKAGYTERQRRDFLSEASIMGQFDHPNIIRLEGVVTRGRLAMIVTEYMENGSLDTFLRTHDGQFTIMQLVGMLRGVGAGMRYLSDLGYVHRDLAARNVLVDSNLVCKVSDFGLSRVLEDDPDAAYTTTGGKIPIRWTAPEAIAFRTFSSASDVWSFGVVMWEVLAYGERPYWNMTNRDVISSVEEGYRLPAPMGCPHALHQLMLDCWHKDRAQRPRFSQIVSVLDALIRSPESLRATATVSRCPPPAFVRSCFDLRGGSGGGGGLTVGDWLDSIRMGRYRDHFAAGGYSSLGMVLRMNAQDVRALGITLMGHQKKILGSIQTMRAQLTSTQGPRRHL
T15 sequence (O94806 whole entry): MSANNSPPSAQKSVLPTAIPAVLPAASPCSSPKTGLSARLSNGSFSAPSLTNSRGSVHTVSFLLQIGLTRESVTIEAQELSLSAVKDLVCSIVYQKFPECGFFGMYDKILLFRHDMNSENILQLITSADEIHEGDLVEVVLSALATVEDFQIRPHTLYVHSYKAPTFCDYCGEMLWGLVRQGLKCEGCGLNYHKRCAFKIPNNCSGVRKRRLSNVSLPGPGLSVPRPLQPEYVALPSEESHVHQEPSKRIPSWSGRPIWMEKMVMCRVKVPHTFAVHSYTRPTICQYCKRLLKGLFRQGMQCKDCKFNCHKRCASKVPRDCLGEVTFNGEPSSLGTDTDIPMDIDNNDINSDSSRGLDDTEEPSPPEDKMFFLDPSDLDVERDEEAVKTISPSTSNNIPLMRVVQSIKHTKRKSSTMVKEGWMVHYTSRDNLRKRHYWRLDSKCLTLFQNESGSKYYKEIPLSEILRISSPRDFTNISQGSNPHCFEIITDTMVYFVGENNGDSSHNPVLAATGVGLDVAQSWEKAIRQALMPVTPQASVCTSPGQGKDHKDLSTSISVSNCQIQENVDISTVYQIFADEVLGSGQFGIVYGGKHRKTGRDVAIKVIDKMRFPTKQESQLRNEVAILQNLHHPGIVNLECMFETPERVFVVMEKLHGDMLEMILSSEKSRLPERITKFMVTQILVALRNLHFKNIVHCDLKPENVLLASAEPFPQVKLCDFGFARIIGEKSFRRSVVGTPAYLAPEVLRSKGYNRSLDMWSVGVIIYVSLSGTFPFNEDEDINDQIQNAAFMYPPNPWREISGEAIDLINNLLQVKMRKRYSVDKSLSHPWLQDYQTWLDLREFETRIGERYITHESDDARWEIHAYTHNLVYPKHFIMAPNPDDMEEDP
T13 sequence (P53779 whole entry): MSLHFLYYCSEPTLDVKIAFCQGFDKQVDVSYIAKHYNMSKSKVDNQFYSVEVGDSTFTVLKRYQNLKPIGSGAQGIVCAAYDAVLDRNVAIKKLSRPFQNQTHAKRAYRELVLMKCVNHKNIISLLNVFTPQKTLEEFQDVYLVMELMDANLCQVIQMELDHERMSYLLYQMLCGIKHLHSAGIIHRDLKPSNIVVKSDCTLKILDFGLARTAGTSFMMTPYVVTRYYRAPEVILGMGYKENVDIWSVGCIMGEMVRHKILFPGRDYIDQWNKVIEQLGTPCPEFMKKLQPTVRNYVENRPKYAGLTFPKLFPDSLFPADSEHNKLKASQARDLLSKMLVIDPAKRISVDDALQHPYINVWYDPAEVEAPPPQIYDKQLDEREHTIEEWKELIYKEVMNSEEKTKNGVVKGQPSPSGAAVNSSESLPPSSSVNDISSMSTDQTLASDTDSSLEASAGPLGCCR
T11 sequence (Q13873 27-1038): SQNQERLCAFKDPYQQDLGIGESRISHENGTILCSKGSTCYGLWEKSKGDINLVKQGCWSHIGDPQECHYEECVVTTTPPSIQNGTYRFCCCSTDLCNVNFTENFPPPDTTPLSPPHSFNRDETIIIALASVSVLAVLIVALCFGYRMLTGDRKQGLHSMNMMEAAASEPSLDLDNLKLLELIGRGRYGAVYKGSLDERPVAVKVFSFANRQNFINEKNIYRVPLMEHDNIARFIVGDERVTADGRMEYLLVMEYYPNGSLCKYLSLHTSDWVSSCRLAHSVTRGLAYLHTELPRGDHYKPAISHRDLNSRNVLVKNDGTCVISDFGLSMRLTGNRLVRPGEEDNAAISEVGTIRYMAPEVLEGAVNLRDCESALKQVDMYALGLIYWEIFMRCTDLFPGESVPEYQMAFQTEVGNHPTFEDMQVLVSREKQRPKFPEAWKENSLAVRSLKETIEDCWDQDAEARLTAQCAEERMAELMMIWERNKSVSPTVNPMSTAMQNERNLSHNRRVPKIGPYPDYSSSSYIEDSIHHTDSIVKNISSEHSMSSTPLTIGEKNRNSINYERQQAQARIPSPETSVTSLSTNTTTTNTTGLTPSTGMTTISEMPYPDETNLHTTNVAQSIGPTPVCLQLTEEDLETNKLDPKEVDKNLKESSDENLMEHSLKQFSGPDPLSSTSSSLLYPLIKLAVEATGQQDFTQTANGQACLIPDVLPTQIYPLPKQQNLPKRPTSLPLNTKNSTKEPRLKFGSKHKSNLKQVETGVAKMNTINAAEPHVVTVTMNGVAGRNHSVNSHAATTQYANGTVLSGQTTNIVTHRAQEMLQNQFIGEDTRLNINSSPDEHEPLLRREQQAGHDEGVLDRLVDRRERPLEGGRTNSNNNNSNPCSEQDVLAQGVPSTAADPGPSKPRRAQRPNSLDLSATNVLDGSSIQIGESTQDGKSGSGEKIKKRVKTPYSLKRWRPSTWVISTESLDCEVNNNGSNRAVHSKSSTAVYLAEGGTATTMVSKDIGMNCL
T8 sequence (Q9UBE8 whole entry): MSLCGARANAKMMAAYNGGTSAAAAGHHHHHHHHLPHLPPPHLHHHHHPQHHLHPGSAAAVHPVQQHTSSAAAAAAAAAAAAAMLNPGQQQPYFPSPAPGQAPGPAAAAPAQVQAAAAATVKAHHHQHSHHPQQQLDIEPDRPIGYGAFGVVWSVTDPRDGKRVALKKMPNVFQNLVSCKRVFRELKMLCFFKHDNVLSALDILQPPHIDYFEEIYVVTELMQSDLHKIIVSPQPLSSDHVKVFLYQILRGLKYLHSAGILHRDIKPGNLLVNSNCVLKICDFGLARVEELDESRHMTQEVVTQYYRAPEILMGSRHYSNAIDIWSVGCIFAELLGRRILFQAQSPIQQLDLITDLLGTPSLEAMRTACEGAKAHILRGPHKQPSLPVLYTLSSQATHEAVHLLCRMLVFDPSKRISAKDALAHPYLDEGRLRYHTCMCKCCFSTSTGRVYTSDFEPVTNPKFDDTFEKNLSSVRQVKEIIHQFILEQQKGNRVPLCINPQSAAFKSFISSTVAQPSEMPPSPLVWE
T4 sequence (O00141 whole entry): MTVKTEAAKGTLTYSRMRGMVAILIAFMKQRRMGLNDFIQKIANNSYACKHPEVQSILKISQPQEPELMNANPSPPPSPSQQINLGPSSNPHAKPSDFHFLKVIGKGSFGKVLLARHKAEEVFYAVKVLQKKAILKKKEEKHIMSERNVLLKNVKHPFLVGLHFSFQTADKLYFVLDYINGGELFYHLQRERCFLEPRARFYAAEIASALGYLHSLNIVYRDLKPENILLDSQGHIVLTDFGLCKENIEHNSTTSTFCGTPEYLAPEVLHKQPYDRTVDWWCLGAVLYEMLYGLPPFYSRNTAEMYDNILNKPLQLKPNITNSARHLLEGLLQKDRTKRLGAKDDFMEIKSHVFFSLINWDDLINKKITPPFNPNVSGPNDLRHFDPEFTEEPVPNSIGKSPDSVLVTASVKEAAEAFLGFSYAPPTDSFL

CN1CCC(CNc2ccc3ncc(C(=O)Nc4cccc(OC(F)(F)F)c4)n3n2)CC1 [Cpd 2]
remaining binding at 1 µM (PAK6): 98% | remaining binding at 1 µM (FGFR3): 98% | remaining binding at 1 µM (PIK3CG): 100% | remaining binding at 1 µM (SGK): 85% | remaining binding at 1 µM (CDKL3): 91% | remaining binding at 1 µM (LTK): 93% | EC50 (PDAC4 3D spheres): 7.17 µM | remaining binding at 1 µM (EPHA8): 100% | remaining binding at 1 µM (NLK): 97% | remaining binding at 1 µM (ABL1(H396P)-P): 100% | remaining binding at 1 µM (MYO3A): 91% | remaining binding at 1 µM (BMPR2): 87% | remaining binding at 1 µM (ARK5): 88% | remaining binding at 1 µM (JNK3): 100% | remaining binding at 1 µM (CDK4): 100% | remaining binding at 1 µM (PRKD3): 92% | remaining binding at 1 µM (RPS6KA5(KD2-C-t.)): 92% | remaining binding at 1 µM (MEK2): 90% | remaining binding at 1 µM (ABL1(Y253F)-P): 100%
